Several values for one entry are separate records, joined by “and”; a condition that tells them apart may be missing. Equal entries are not always repeated.
Tests used:
HIV-1 (HTLV-IIIB) = assay: microbe, parasite or virus in culture; type: cell-based; details: for ED50: antiviral activity, MT-4 cells challenged with HIV-1 (HTLV-IIIB) at 100 CCID50, 5 days
Method: (§1) The compounds of the invention were tested in a screen by the MTT method (J.Virol. Methods […]: 309-321 [1988]). MT-4 cells (2.5 x 10⁴ / well) were challenged with HIV-1 (HTLV-IIIB) or HIV-2 (LAV-2 ROD) at a concentration of 100 CCID₅₀ and incubated in the presence of various concentrations of the test compounds, which were added immediately after challenge with the virus. After 5 days culture at 37°C in a CO₂ incubator, the number of viable cells was assessed by the MTT (tetrazolium) method. Antiviral activity and cytotoxicity of the compounds are expressed in the table below as ED₅₀ (ug/ml) and CD₅₀ (ug/ml), respectively. The potential therapeutic usefulness was assessed by calculating a Selectivity Index (SI) corresponding to the ratio of CD₅₀ to ED₅₀. A control test was performed using the known anti-HIV treatment AZT, and a comparison compound HPA-23 was also run through the screen as detailed below. In the table below, the compounds screened were […]

[1] = Cytotoxicity by MTT method; type: cell-based; details: human, MT-4 cells, 5 days, read-out: CD50
Method: as §1

MT-4 cells = assay: Cytotoxicity by MTT method; type: cell-based; details: 5 days
Method: as §1

HIV-2 (LAV-2 ROD) = assay: MTT method anti-HIV screen in MT-4 cells, HIV-2 challenge; type: cell-based; details: antiviral activity, MT-4 cells challenged with HIV-2 (LAV-2 ROD) at 100 CCID50, 5 days
Method: as §1

HIV = details: reported in Chemical and Engineering News, December 1986; cited from earlier work
[2] = in vivo; cited from earlier work
herpes virus = details: from JP 64-38,022; cited from earlier work
[3] = value printed in the HIV-1 line, 7200 min
[4] = value printed in the HIV-2 line, 7200 min
[5] = value printed in the HIV-1 line
[6] = value printed in the HIV-2 line

Molecule	ED50 (HIV-1 (HTLV-IIIB)) [µg/mL]	ED50 (HIV-2 (LAV-2 ROD)) [µg/mL]	CD50 (MT-4 cells; [5]) [µg/mL]	CD50 (MT-4 cells; [6]) [µg/mL]	further results
Cc1cn([C@H]2C[C@H](N=[N+]=[N-])[C@@H](CO)O2)c(=O)[nH]c1=O [AZT, azidothymidione, reference compound]	–	–	–	–	EC50 (HIV-1 (HTLV-IIIB); Human immunodeficiency virus 1, IIIB, MT4, 120 h, read-out: ED50): < 8 ng/mL; SI (HIV-1 (HTLV-IIIB); Selectivity Index, ratio of CD50 to ED50, HIV-1, 7200 min): >125; CC50 at 120 h [1]: > 1 µg/mL
(NH₄)₁₂[H₂P₂W₁₂O₄₈].16H₂O [Example 7]	–	–	–	–	CD50 (MT-4 cells; [3]): >500.0 µg/mL and 304.0 µg/mL; CD50 (MT-4 cells; [4]): 346.0 µg/mL and 286.0 µg/mL
(NH₄)₁₇H[NaSb₉W₂₁O₈₆] [HPA 23, reference compound]	2.8	>4	7.4	2.4	–
Na7[PrW10O35] [C]	1.86	2.70	761.8	221.7	–
K9Li[P2W17O62] [E]	2.92	7.28	502.9	429.7	–
K10[P2W18Co4(H2O)2O68]	1.47	12.26	84.8	81.6	–
K12[H2P2W12O48] [A]	0.089	0.153	721.0	675.9	–
Na12[P4W14O58] [F]	4.82	13.26	655.8	682.8	–
Reduced form of K₆[P₂W₁₂Mo₆O₆₂] [Example 12]	–	–	–	–	ED50 (HIV-1 (HTLV-IIIB); 7200 min): 4.1 µg/mL and 5.8 µg/mL; ED50 (HIV-2 (LAV-2 ROD); 7200 min): 1.8 µg/mL and 1.4 µg/mL; CD50 (MT-4 cells; [3]): 234.0 µg/mL and 300.0 µg/mL; CD50 (MT-4 cells; [4]): 315.0 µg/mL and 306.0 µg/mL
K10[P2W18Zn4(H2O)2O68] [B]	0.71	18.03	466.3	441.9	–
silicotungstate acid, H₄SiW₁₂O₄₀	–	–	–	–	activity against HIV (HIV): has activity against HIV; toxicity in higher animals [2]: abandoned because of its toxicity in higher animals
K₅BW₁₂O₄₀	–	–	–	–	activity against herpes virus (herpes virus): have activity against herpes virus
K₇PW₁₀Ti₂O₄₀	–	–	–	–	activity against herpes virus (herpes virus): have activity against herpes virus

Reference: patent EP0442663A1, “Improvements in chemical compounds” (priority 1990, dated 1991)
